Data reported in article PMC12720774, “Detergents alter the stability and lipid binding properties of the CD1d immunoreceptor” (Protein Science : A Publication of the Protein Society, 2025).
Values joined by “and” are separate entries in the source; they are usually repeats but may differ in a detail not shown here. Equal values may be shown once. Read-outs that look alike come from different tables or passages of the source.

Legend:
[1] = approximate, cited from earlier work
[2] = tested on: CD1c; design: method as in Mansour et al., 2016; details: ref Mansour et al., 2016; cited from earlier work
[3] = target: T1, AF647‐labeled hCD1d (Homo sapiens, UniProt P15813+P61769); assay: Microscale thermophoresis (MST) binding assay
T1 construct: TEV protease cleavage site ENLYFQS (C); BirA biotinylation site (C); His7 (C); made in house; host or cells: TurboCHO cells (GenScript)
Text: (§1) The experimental limitations of ITF, such as low instrument sensitivity, high sample consumption, signal overlap with some ligands, and low throughput (Fossum et al., [2023]), made it necessary to employ alternative, complementary assays to quantify detergent binding to hCD1d. […] MST measures the diffusion of fluorescent molecules in response to microscopic temperature gradients (Seidel et al., [2013]). When a protein forms a complex with a ligand, changes in hydrodynamic properties, charge, or solvation energy alter its thermophoretic behavior, allowing detection of binding events. To perform MST experiments, Alexa Fluor 647 (AF647) dye was covalently attached to the primary amines of hCD1d via standard N‐hydroxysuccinimide coupling chemistry (Anderson et al., [1964]). The concentration of AF647‐hCD1d was kept constant, and the change in MST signal was measured as a function of increasing detergent concentration (Figure S3). Like ITF, any lipid or detergent that destabilizes CD1 can also alter the MST signal since unfolding changes the protein's Stokes radius and its thermophoretic behavior. […] This is why we compare MST results with ITF and nanoDSF, as described below.
(§2) For MST, hCD1d was fluorescently labeled with AF647‐NHS Ester (Invitrogen #A20006). Briefly, a 10 mM stock of AF647‐NHS was prepared in anhydrous DMSO. Then, 100 μL of 50 μM hCD1d in 1X PBS pH 7.4 was mixed with 1 μL of 10 mM AF647‐NHS (1:2 molar ratio of protein: dye). The mixture was allowed to react for 1 h in the dark at 25°C. Unreacted dye was removed from the protein–dye conjugate by performing size exclusion chromatography in the dark with a Superdex 200 Increase 10/300 GL column at a flow rate of 0.5 mL/min in SEC buffer (100 mM NaCl, 20 mM sodium phosphate, pH 7.2). The degree of labeling was determined by a NanoDrop spectrophotometer at A647 nm (dye absorbance) and A280 nm (hCD1d absorbance). The degree of labeling was determined from the ratio of dye concentration to protein concentration. The degree of labeling was ~75%.
(§3) MST experiments were performed using a Monolith NT.115 instrument (NanoTemper Technologies) using Monolith standard capillaries and the red excitation laser setup. The following settings were applied for all MST experiments: excitation power: 30%–50%, MST power: medium, before MST time: 3 s, MST on time (IR laser): 20 seconds, and after MST time: 1 s. MST measurements were analyzed using the Monolith Affinity Analysis software v2.3 and exported for plotting in GraphPad Prism v10.1. Three replicates were performed, and data are presented as the mean ± standard deviation (n = 3).
(§4) MST measurements of 100 nM AF647‐hCD1d were acquired in the absence and presence of detergents in 1X PBS pH 7.4 at 25°C. Prior to data acquisition, hCD1d and detergent or lipid samples were incubated at 37°C overnight (~12 h) to simulate in vitro and in vivo loading conditions. […] For 18:1 LPC experiments: MST data of 100 nM AF647‐hCD1d were acquired in the absence and presence of 18:1 LPC in 1X PBS pH 7.4 at 25°C.

[4] = Lipid solubility on resuspension in buffer; type: physicochemical; details: 1X PBS pH 7.4 with or without detergent
Text: Detergents were resuspended to desired stock concentrations in 1X PBS pH 7.4 using sonication/heating. The following lipids were purchased: 1‐oleoyl‐2‐hydroxy‐sn‐glycero‐3‐phosphocholine (18:1 LPC, Avanti Research #845875) and α‐galactosyl ceramide (α‐GalCer, Avanti Research #867000).

[5] = target: T2, hCD1d (Homo sapiens, UniProt P15813+P61769); assay: Nano differential scanning fluorimetry (nanoDSF) thermal stability; type: binding; design: TEV protease cleavage site ENLYFQS (C); BirA biotinylation site (C); His7 (C); made in house; host or cells: TurboCHO cells (GenScript)
Text: We next sought to probe the ability of each detergent to influence the thermal stability of hCD1d. NanoDSF has been previously applied to measure lipid/detergent‐induced thermal stability changes in target proteins (Cecchetti et al., [2021]; Kotov et al., [2019]), but has not yet been applied to ligand binding to CD1. NanoDSF measures the ITF ratio (F 350 nm/F 330 nm) of proteins as a function of temperature to extract thermodynamic parameters. Given that ligand binding typically shifts the melting temperature of proteins, the effect of a ligand on protein stability can be approximated with the ΔT m value (the difference in T m with and without excess ligand) (Cecchetti et al., [2021]; Kotov et al., [2019]). We found all detergents tested to destabilize hCD1d, albeit to different degrees, with ΔT m values ranging from −0.8 to −14.2°C (Figures 4, S4, and Table 1).
Nano differential scanning fluorometry (nanoDSF) was performed using a Prometheus NT.48 (NanoTemper Technologies). Purified hCD1d at 1 μM in 1X PBS pH 7.4 was loaded into nanoDSF grade standard capillaries (NanoTemper Technologies) and exposed to temperatures ranging from 20 to 95°C with a thermal ramping rate of 1°C/min. Excitation power was set to 50%. The ratio of intrinsic fluorescence emission (F 350 nm/F 330 nm) was monitored. Melting temperatures (T m) were obtained from fitting the first derivative plots in the Prometheus NT.48 Software. The experiments were performed in triplicate, and data are presented as the mean ± standard deviation (n = 3).
For experiments with most detergents, prior to data acquisition, hCD1d and detergent or lipid samples were incubated at 37°C overnight (~12 h) to simulate in vitro and in vivo loading conditions. […] For 18:1 LPC experiments: nanoDSF spectra were acquired in the absence and presence of 18:1 LPC in 1X PBS pH 7.4 at 25°C.

[6] = target: T3, AF647‐labeled hCD1d (Homo sapiens, UniProt P15813); assay: Microscale thermophoresis (MST) binding assay; details: read-out: K D (MST) of lipid
T3 construct: TEV protease cleavage site ENLYFQS (C); BirA biotinylation site (C); His7 (C); made in house; host or cells: TurboCHO cells (GenScript)
Text: as §1, §2, §3, §4

[7] = target: T2, hCD1d; design: method as in Cantu et al., 2003; Naidenko et al., 1999; details: previously estimated, in the presence of detergent; ref Cantu et al., 2003; Naidenko et al., 1999; read-out: binding affinity to hCD1d; cited from earlier work
[8] = tested on: CD1d; design: method as in Paletta et al., 2015; details: ref Paletta et al., 2015; cited from earlier work
[9] = target: T4, recombinant human CD1d ectodomain/β2m complex (hCD1d) (Homo sapiens, UniProt P15813); assay: Intrinsic tryptophan fluorescence (ITF) binding assay; details: 18:1 LPC titration with 0.05% CHAPS; read-out: K D (ITF) of lipid
T4 construct: TEV protease cleavage site ENLYFQS (C); BirA biotinylation site (C); His7 (C); made in house; host or cells: TurboCHO cells (GenScript)
Description: For ITF assays, the concentration of hCD1d was kept constant, and intrinsic Trp fluorescence (excitation at 285 nm, emission at 335 nm) was measured as a function of increasing detergent concentration (Fossum et al., [2023]) (Figure S2). The change in relative fluorescence intensity (F − F 0/F 0) provides an indication of binding. […] This was due to limited detergent solubility and decreased hCD1d stability in the presence of a large excess of detergent (see below). […] SDS was the exception, for which Trp fluorescence of hCD1d decreased with added detergent. This could indicate a unique conformational change or destabilization of the protein.
ITF spectra were recorded from 300 to 500 nm using a Horiba FL3‐21 Fluorometer with the excitation wavelength of 285 nm and excitation/emission slits of 6.2 nm. Fluorescence spectra of 50 to 100 nM hCD1d were acquired in the absence and presence of detergents in 1X PBS pH 7.4 at 25°C. Prior to data acquisition, hCD1d and detergent or lipid samples were incubated at 37°C overnight (~12 h) to simulate in vitro and in vivo loading conditions. […] For 18:1 LPC experiments, fluorescence spectra of 100 nM hCD1d were acquired in the absence and presence of 18:1 LPC in 1X PBS pH 7.4 at 25°C. […] For all ITF experiments, the change in fluorescence signal (F − F 0/F 0) was determined at 335 nm. Three replicates were performed, and data are presented as the mean ± standard deviation (n = 3). K D values were fitted with non‐linear regression in GraphPad Prism v10.1.

[10] = 0.001 M detergent, 100 nM AF647‐hCD1d
[11] = Figure 5B, detergent binding to hCD1d, read-out: MST - Kd (uM) average
[12] = detergent with 100 nM AF647‐labeled hCD1d, 25°C, apparent, read-out: K D (MST)

T3 sequence (P15813 whole entry, looked up): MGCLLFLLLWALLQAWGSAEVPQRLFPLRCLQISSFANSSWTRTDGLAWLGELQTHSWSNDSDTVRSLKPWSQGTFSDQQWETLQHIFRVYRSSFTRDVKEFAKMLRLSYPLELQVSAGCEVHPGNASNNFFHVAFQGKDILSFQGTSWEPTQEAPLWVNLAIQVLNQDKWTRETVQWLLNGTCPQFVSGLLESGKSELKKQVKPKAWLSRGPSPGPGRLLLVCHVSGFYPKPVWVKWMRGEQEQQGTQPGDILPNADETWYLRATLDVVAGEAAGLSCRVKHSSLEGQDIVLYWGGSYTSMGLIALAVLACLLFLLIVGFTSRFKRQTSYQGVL
T2 sequence (P61769+P15813 fused): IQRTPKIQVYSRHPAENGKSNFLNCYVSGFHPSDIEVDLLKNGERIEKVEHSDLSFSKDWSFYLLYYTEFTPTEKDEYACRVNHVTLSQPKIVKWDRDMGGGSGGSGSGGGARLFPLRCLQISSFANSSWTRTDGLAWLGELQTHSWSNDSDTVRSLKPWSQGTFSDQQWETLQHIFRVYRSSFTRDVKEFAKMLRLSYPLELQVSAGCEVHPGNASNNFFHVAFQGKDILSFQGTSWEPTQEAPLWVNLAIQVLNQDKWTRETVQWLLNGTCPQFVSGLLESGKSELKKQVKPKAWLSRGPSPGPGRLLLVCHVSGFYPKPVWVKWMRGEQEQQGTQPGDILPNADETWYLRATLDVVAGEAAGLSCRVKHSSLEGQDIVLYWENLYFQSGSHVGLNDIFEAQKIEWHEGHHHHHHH
T1 sequence (P61769+P15813 fused): as above
T4 sequence (P15813 whole entry, looked up, the tested form may be a part, one chain of several): as the sequence (P15813 whole entry, looked up) above

Compound	Fnorm (rep 1-3) ([3]; 3.05176e-8 M detergent)	Fnorm (rep 1-3) ([3]; 6.10352e-8 M detergent)	Fnorm (rep 1-3) ([3]; 1.2207e-7 M detergent)	Fnorm (rep 1-3) ([3]; 2.44141e-7 M detergent)	Fnorm (rep 1-3) ([3]; 4.88281e-7 M detergent)	Fnorm (rep 1-3) ([3]; 9.76563e-7 M detergent)	Fnorm (rep 1-3) ([3]; 1.95313e-6 M detergent)	Fnorm (rep 1-3) ([3]; 3.90625e-6 M detergent)	Fnorm (rep 1-3) ([3]; 7.8125e-6 M detergent)	Fnorm (rep 1-3) ([3]; 1.5625e-5 M detergent)	Fnorm (rep 1-3) ([3]; 3.125e-5 M detergent)	Fnorm (rep 1-3) ([3]; 6.25e-5 M detergent)	Fnorm (rep 1-3) ([3]; 0.000125 M detergent)	Fnorm (rep 1-3) ([3]; 0.00025 M detergent)	Fnorm (rep 1-3) ([3]; 0.0005 M detergent)	Fnorm (rep 1-3) [3, 10]	Kd [3, 11]	Kd [3, 12]	also measured
Triton X‐100	791.41 ‰ and 793.583 ‰ and 796.04 ‰	790.759 ‰ and 794.057 ‰ and 796.294 ‰	791.349 ‰ and 794.228 ‰ and 797.32 ‰	790.267 ‰ and 793.445 ‰ and 796.715 ‰	790.372 ‰ and 793.504 ‰ and 796.705 ‰	791.231 ‰ and 794.12 ‰ and 796.582 ‰	791.888 ‰ and 794.837 ‰ and 796.079 ‰	797.735 ‰ and 798.529 ‰ and 800.673 ‰	801.114 ‰ and 802.717 ‰ and 802.805 ‰	806.412 ‰ and 805.281 ‰ and 808.579 ‰	808.925 ‰ and 810.844 ‰ and 811.355 ‰	813.586 ‰ and 816.925 ‰ and 817.48 ‰	826.07 ‰ and 832.084 ‰ and 828.584 ‰	828.437 ‰ and 829.609 ‰ and 830.632 ‰	829.715 ‰ and 832.769 ‰ and 836.286 ‰	833.009 ‰ and 835.212 ‰ and 836.54 ‰	45.8 µM	45.8 ± 7.9 µM	CMC ([1]; ref Anatrace catalogue): 230 µM; CMC ([1]; weight/volume, ref Anatrace catalogue): 0.015%; stripping of lipid antigens from CD1c (in words) [2]: could efficiently strip lipid antigens away
CCCCCCCCCCCCCCCCCCCCCCCCCC(=O)N[C@@H](CO[C@H]1O[C@H](CO)[C@H](O)[C@H](O)[C@H]1O)[C@H](O)[C@H](O)CCCCCCCCCCCCCC [α‐GalCer, α‐galactosyl ceramide]																			solubility (in words) [4]: only soluble in the presence of Tween 20; ΔT m (nanoDSF) of lipid ([5]; absence vs presence of 50 μM α‐GalCer, with 0.05% Tween 20): +13.7 ± 0.2 °C; Kd ([6]; α‐GalCer titration with 0.05% Tween 20, estimated): 6.6 ± 4.1 µM; Kd [7]: 0.1 to 0.5 µM
Tyloxapol	791.032 ‰ and 791.82 ‰ and 793.917 ‰	788.237 ‰ and 790.225 ‰ and 792.188 ‰	789.186 ‰ and 789.645 ‰ and 792.672 ‰	789.349 ‰ and 791.297 ‰ and 791.601 ‰	793.87 ‰ and 796.123 ‰ and 800.037 ‰	794.535 ‰ and 800.785 ‰ and 799.868 ‰	799.667 ‰ and 802.675 ‰ and 807.47 ‰	800.165 ‰ and 807.424 ‰ and 808.195 ‰	803.847 ‰ and 808.251 ‰ and 810.421 ‰	804.661 ‰ and 807.958 ‰ and 808.866 ‰	803.048 ‰ and 809.197 ‰ and 809.196 ‰	803.488 ‰ and 807.296 ‰ and 810.346 ‰	802.129 ‰ and 807.585 ‰ and 809.032 ‰	803.446 ‰ and 808.163 ‰ and 808.584 ‰	803.236 ‰ and 807.226 ‰ and 808.719 ‰	804.928 ‰ and 807.69 ‰ and 809.093 ‰	0.96 µM	0.9 ± 0.2 µM	CMC ([1]; ref Sigma Aldrich catalogue): 18 µM; efficiency of loading α‐GalCer analogues onto CD1d (in words) [8]: more efficient than Tween 20 and Triton X‐100
CCCCCCCC/C=C\CCCCCCCC(=O)OC[C@@H](O)COP(=O)([O-])OCC[N+](C)(C)C [18:1 LPC, 1‐oleoyl‐2‐hydroxy‐sn‐glycero‐3‐phosphocholine]																			ΔT m (nanoDSF) of lipid ([5]; absence vs presence of 200 μM 18:1 LPC, no detergent): −8.1 ± 1.7 °C; Kd [9]: 59.9 ± 19.4 µM; Kd ([6]; 18:1 LPC titration with 0.05% CHAPS): 5.6 ± 1.3 µM; Kd ([6]; 18:1 LPC titration, absence of detergent, 100 nM AF647‐hCD1d, 25°C): ~7.7 µM and 7.7 µM
